# According to patent EP0960886B1, “Peptide T and related peptides in the treatment of inflammation, including multiple sclerosis” (priority 1992, dated 1993):
# “And” between values parts separate entries of the source, which are not always exact repeats. Equal entries are not always repeated.
# Columns and labels:
# [1] = system: LPS; experiment: LPS-induced inflammation in mice (Example 5); format: in vivo, balb/c mice; design: key: indicated on a scale of (-) to (+++); indicated on a scale of (-) to (+++); indicated on a scale of (-) to (+++)
# Description: Normal balb/c mice (female, 12 weeks) were administered LPS (250 µg, E. coli K-235, Sigma cat. no. L-2018) at time zero. One group of mice (50 animals) were then treated at 30 minutes intervals by i.p. injections of bovine serum albumin (BSA) (Sigma cat. no. 6793) dissolved in pyrogen-free, sterile, isotonic water (2.5 mg BSA per animal per injection, each injection containing 100 µl).
# The second group of mice (50 animals) were treated at 30 minutes intervals by i.p. injections of Peptide T (Carlbiotech A/S batch 109401) dissolved in pyrogen-free, sterile, isotonic water (2.5 mg Peptide T per animal per injection, each injection 100 µl).
# Glucose levels were determined on blood samples after 3 hours. Subjective parameters such as secretion from the eye, diarrhoea and general well being are indicated on a scale of (-) to (+++).
# [2] = system: p56^lck; experiment: lck specific tyrosine kinase assay (autophosphorylation) in PBL blasts (Example 10); format: cell-based; design: key: ++++: highly active; +: slightly active; details: Unstimulated PBL blasts; Peptide T 10^-9 M for 2 hours; without P.T. +++
# Description: PBL (peripheral blood leukocyte) blasts were prepared by incubating PBMC at 37°C with PHA (10 µg/ml) in RPMI + 10% FBS for 48 hours followed by addition of interleukin-2 and incubation for a subsequent 96 hours. Cells were washed free of IL-2 and incubated for 24 hours then washed free of FBS and incubated for 24 hours. PBL blasts remained either […] or were. treated with OKT4A (anti-CD4) at 10 µg/ml for 1 hour followed by rat anti-mouse Ig at 5 µg/ml for 5 minutes to enhance lck activity. PBL blasts were pretreated with Peptide T (10^-9 M) for 2 hours, then washed extensively before anti-CD4 stimulation. Following immunoprecipitation with anti-lck-Protein A conjugates and incubation (37°C, 10 minutes) with ^32P-ATP, p56^lck autophosphorylation was determined by autoradiography and used as a measure of p56^lck activity.
# Peptide T will inhibit the PHA-induced activation and anti-CD4 dependent enhancement of p56^lck activity as we have determined (Table V) by an lck specific tyrosine kinase assay. p56^lck is a CD4 associated tyrosine kinase involved in T cell activation and transmembrane signalling (Janeway C.A. Ann. Rev. Immunol. 10 645-674 (1992)). […]
# [3] = system: PBMC; format: cell-based, human
# [4] = system: IL-1; experiment: Serum IL-1 by RIA in patients with HIV disease; format: in vivo, human; details: one line per patient with HIV disease
# Source text: (§1) However, neopterin levels were elevated prior to Peptide T administration whereas serum IL-1 levels were normal.
# [5] = system: Neopterin; experiment: Serum neopterin by RIA in patients with HIV disease; format: in vivo, human; details: one line per patient with HIV disease
# Source text: as §1
# [6] = system: human neutrophils; experiment: TNF-induced neutrophil chemiluminescence (lucigenin-dependent); format: cell-based; details: Figure 10
# Description: Neutrophils. Neutrophils were isolated from whole blood from healthy blood donors. Separation was achieved by the rapid-single-step method of centrifugation of whole blood on FICOLL-HYPAQUE™. These were >99% viable and usually >98% pure.
# Peptides and TNF. TNF was a recombinant product produced in E. coli. Peptide T and analogue 505 (D-Ser-Ser-D-Thr-Thr-D-Thr-Thr-Tyr-D-Thr) were resuspended in Hank's Balanced Salt Solution (HBSS).
# To 100µl of 500-1000U/ml of TNF was added 10µl of peptide and after 5 min 100µl of 1x10^7 neutrophils/ml was added. The cells further incubated at 37°C/20 min and then tested for chemiluminescence activity. In some cases an agonist such as fMLP (10^-7M) was added. Chemiluminescence was measured in a luminometer (LKB). The results for Peptide T are presented in Figure 12 as peak rate of CL release. Lucigenin-dependent chemiluminescence was measured: this represents superoxide measurement. In another set of experiments the effects of analogue 505 on the LPS-induced neutrophil chemiluminescence were examined. In this case the LPS was essentially substituted for the TNF. The concentration of LPS was 0.005µg/ml.
# [7] = system: human monocyte chemotaxis; details: cited from earlier work
# [8] = patients with AIDS; Phase I (USC) and Phase II (Fenway Clinic); cited from earlier work
# [9] = system: gp120; details: rat hippocampal membranes; cited from earlier work
# [10] = t3hrs, LPS 250 µg, 2.5 mg Peptide T i.p. at 30 minutes intervals
structure (smiles),measurement,setting,value
"C[C@@H](N)C(=O)N[C@@H](CO)C(=O)N[C@H](C(=O)N[C@H](C(=O)N[C@H](C(=O)N[C@@H](CC(N)=O)C(=O)N[C@@H](Cc1ccc(O)cc1)C(=O)N[C@H](C(N)=O)[C@@H](C)O)[C@@H](C)O)[C@@H](C)O)[C@@H](C)O [Peptide T, D-Ala-Ser-Thr-Thr-Thr-Asn-Tyr-Thr-NH2]",General well being,[1]; t0 (baseline),-
same,Secretion from eyes,[1]; t0 (baseline),-
same,Diarrhoea,"[1]; t0 (baseline), LPS 250 µg at time zero",-
same,Diarrhoea,[1]; [10],+
same,General well being,[1]; [10],+
same,Secretion from eyes,[1]; [10],+
same,activity of p56^lck,[2],+
same,"lymphocytes responding to recall antigen (MMR), antibodies to CD3 or the superantigens SEB and TSST-1",[3],negligible effects
same,[IL-1],[4]; post-Peptide T,3.8 ± 0.12 fmol/100µl and 4.2 ± 0.07 fmol/100µl and 4.6 ± 0.11 fmol/100µl and 4.7 ± 0.05 fmol/100µl and 4.2 ± 0.02 fmol/100µl and 4.2 ± 0.26 fmol/100µl and 4.33 ± 0.003 fmol/100µl and 4.6 ± 0.02 fmol/100µl
same,[IL-1],[4]; pre-Peptide T (baseline),3.5 ± 0.14 fmol/100µl and 5.23 ± 0.17 fmol/100µl and 4.1 ± 0.01 fmol/100µl and 4.1 ± 0.03 fmol/100µl and 3.7 ± 0.03 fmol/100µl and 4.2 ± 0.14 fmol/100µl and 3.9 ± 0.13 fmol/100µl and 4.35 ± 0.06 fmol/100µl
same,[Neopterin],[5]; Pre-Peptide T (baseline),47.3 ± 0.8 nM and 27.8 ± 0.8 nM and 13.15 ± 2.85 nM and 52.0 ± 4.0 nM
same,[Neopterin],[5]; post-Peptide T,32.5 ± 3.5 nM and 19.75 ± 0.25 nM and 8.9 ± 0.6 nM and 16.85 ± 0.05 nM
same,activation of human neutrophils by TNF,[6],inhibits activation of human neutrophils by TNF
same,agonist activity on human monocyte chemotaxis,[7],potent agonists
same,HIV-induced neurocognitive impairment,[8],improvement
same,concentrations that inhibit the binding of radiolabelled gp120,[9],0.1 nM
